According to patent publication US12364702B2, “Highly active sting protein agonist compound” (ADLAI NORTYE BIOPHARMA CO., LTD., priority 2018, dated 2025):
Where two headings read alike, the source gives them in different places.

Key:
Format in all cases: cell-based
STING WT variant = biological target: T1, STING WT variant (Homo sapiens, UniProt Q86WV6); experiment: SEAP reporter assay in HEK-Blue ISG KO-STING cells transfected with STING WT variant (Method 1); details: 1 ng STING vector, compound 2.5 uM, 24 h, SEAP signal vs 0.5% DMSO
T1 construct: host or cells: HEK-Blue ISG KO-STING cells (Invivogen, hkb-kostg)
Description: (§1) Activation of STING can be determined using a SEAP reporter assay in HEK-Blue™ ISG KO-STING cells (Invivogen, cat #hkb-kostg) transfected with plasmids expressing STING variants (WT & HAQ) (referred to WO2017/175147A1). STING variants (WT & HAQ) vector were constructed based on STING-232H vector (Origene, RC208418). GFP vector (VT2069) was bought from Youbio. The detailed protocol as follows: HEK-Blue™ ISG KO-STING cells were harvest and seeding into 96 well plate, the final cell number was 0.8×10^5 cells/well. Transfections were prepared using Lipofectamine 2000 (Invitrogen, Cat #11668-027) following the manufacturer's instructions (Lipo2000/DNA=1/10), 20 ul of transfection suspension containing 1 ng STING vector was added to cell culture plate and incubated at 37° C., 5% CO2 for 24 hours. After 24 hours' incubation, compounds were added at proper concentration, and the final DMSO concentration was 0.5%. After 24 h incubation, the supernatant was collected to detect SEAP signal using Great EscAPe SEAP chemiluminescence KIT (Clontech, cat #631738) and cells were collected to detect cell viability using CellTiter-Glo Luminescent Cell Viability Assay (Promega, cat #G7573) following the manufacturer's instructions. The data were described by the ratio of the stimulating signal of compounds to 0.5% DMSO.

STING = STING (Homo sapiens, UniProt Q86WV6); experiment: IFN-β secretion from THP1 by STING activation (hIFNβ ELISA)
Protocol: In this assay, activation of STING by compounds was evaluated by detecting their ability to stimulate the secretion of IFN-β (interferon-beta) from THP1. THP1 was purchased from National Collection of Authenticated Cell Cultures (Cat #TCHu 57). The top dose of compounds was setted according to their solubility. First, Compounds were 3 times diluted with medium, 8-dose points in total. The final DMSO concentration was 0.2%. THP1 during the logarithmic phase was resuspended to 2×10^6 cells/ml in assay medium. The THP1-cell suspension was dispensed into a 96-well U bottom plate containing 50 ul of compound diluted in medium. After 24 h incubation at 37° C., 5% CO2, the supernatant was collected. The concentration of IFN-β in the supernatant was measured using a human IFNβ ELISA KIT (R&D, DY814-05). The data was fitted with GraphPad Prism or XLfit to calculate EC50 values.

STING HAQ variant = biological target: T2, STING HAQ variant (Homo sapiens, UniProt Q86WV6, G230A/R293Q/R71H); experiment: SEAP reporter assay in HEK-Blue ISG KO-STING cells transfected with STING HAQ variant (Method 1); details: 1 ng STING vector, compound 5 uM, 24 h, SEAP signal vs 0.5% DMSO
T2 construct: host or cells: HEK-Blue ISG KO-STING cells (Invivogen, hkb-kostg)
Description: as §1

[1] = THP1 cells; 24 h incubation; IFN-β in supernatant; top dose set according to solubility; read-out: hIFNβ ELISA (EC50)

T2 sequence (Q86WV6 whole entry R71H/G230A/R293Q): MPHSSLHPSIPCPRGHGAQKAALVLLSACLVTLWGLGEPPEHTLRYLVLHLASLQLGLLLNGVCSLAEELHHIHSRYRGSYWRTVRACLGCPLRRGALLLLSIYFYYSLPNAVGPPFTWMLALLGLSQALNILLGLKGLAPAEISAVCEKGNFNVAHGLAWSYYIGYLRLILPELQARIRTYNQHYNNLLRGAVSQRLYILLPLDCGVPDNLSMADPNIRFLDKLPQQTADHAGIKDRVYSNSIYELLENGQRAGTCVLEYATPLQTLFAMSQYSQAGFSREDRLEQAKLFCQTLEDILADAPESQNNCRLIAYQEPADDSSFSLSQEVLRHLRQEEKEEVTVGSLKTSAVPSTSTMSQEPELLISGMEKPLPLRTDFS
STING, sequence (Q86WV6 whole entry): as the sequence (Q86WV6 whole entry R71H/G230A/R293Q) above, with H71R, A230G, Q293R counted along it

Structure (SMILES)	Fold change related to DMSO control WT (STING WT variant)	hIFNβ ELISA (EC50, μM) (STING; THP1 cells; 24 h incubation; IFN-β in supernatant; top dose set according to solubility)	Fold change related to DMSO control HAQ (STING HAQ variant)	EC50 (STING; [1])	EC50 (STING; read-out: hIFNβ ELISA (EC50); THP1 cells; 24 h incubation; IFN-β in supernatant; top dose set according to solubility)
CCn1nc(C)cc1C(=O)Nc1nc2cc(C(N)=O)cc(OCCCNC(=O)CN(C)C)c2n1CCC[C@H]1COc2cc(C#N)cc3nc(NC(=O)c4cc(C)nn4CC)n1c23 [Example 15, (S)-1-(3-(7-cyano-2-(1-ethyl-3-methyl-1H-pyrazole-5-carboxamido)-3,4-dihydro-5-oxa-1,2a-diazaacenaphthylen-3-yl)propyl)-7-(3-(2-(dimethylamino)acetamido)propoxy)-2-(1-ethyl-3-methyl-1H-pyrazole-5-carboxamido)-1H-benzo[d]imidazole-5-carboxamide]	2.11	inactive	11.61		
CCn1nc(C)cc1C(=O)Nc1nc2cc(C(N)=O)cc(OCCNC)c2n1CCC[C@H]1COc2cc(C(N)=O)cc3nc(NC(=O)c4cc(C)nn4CC)n1c23 [Example 16, (S)-3-(3-(5-carbamoyl-2-(1-ethyl-3-methyl-1H-pyrazole-5-carboxamido)-7-(2-(methylamino)ethoxy)-1H-benzo[d]imidazol-1-yl)propyl)-2-(1-ethyl-3-methyl-1H-pyrazole-5-carboxamido)-3,4-dihydro-5-oxa-1,2a-diazaacenaphthylene-7-carboxamide]	2.07		20.47	> 17.9 µM	
CCn1nc(C)cc1C(=O)Nc1nc2cc(C(N)=O)cc(OCCCNC)c2n1CCC[C@H]1COc2cc(C(N)=O)cc3nc(NC(=O)c4cc(C)nn4CC)n1c23.Cl [Example 17, (S)-3-(3-(5-carbamoyl-2-(1-ethyl-3-methyl-1H-pyrazole-5-carboxamido)-7-(3-(methylamino)propoxy)-1H-benzo[d]imidazol-1-yl)propyl)-2-(1-ethyl-3-methyl-1H-pyrazole-5-carboxamido)-3,4-dihydro-5-oxa-1,2a-diazaacenaphthylene-7-carboxamide Hydrochloride]	2.35		33.85		9.8 µM
CCn1nc(C)cc1C(=O)Nc1nc2cc(C(N)=O)cc(OCCCN(C)C)c2n1CCC[C@H]1COc2cc(C(N)=O)cc3nc(NC(=O)c4cc(C)nn4CC)n1c23 [Example 18, (S)-3-(3-(5-carbamoyl-7-(3-(dimethylamino)propoxy)-2-(1-ethyl-3-methyl-1H-pyrazole-5-carboxamido)-1H-benzo[d]imidazol-1-yl)propyl)-2-(1-ethyl-3-methyl-1H-pyrazole-5-carboxamido)-3,4-dihydro-5-oxa-1,2a-diazaacenaphthylene-7-carboxamide]	2.64		40.66	18.2 µM	
CCn1nc(C)cc1C(=O)Nc1nc2cc(C(N)=O)cc(OCCOC)c2n1CCC[C@H]1COc2cc(C(N)=O)cc3nc(NC(=O)c4cc(C)nn4CC)n1c23 [Example 19, (S)-3-(3-(5-carbamoyl-2-(1-ethyl-3-methyl-1H-pyrazole-5-carboxamido)-7-(2-methoxyethoxy)-1H-benzo[d]imidazol-1-yl)propyl)-2-(1-ethyl-3-methyl-1H-pyrazole-5-carboxamido)-3,4-dihydro-5-oxa-1,2a-diazaacenaphthylene-7-carboxamide]	2.33		60.17	6.2 µM	
CCn1nc(C)cc1C(=O)Nc1nc2cc(C(N)=O)cc(OCCCNC(=O)CN(C)C)c2n1CCC[C@H]1COc2cc(C(N)=O)cc3nc(NC(=O)c4cc(C)nn4CC)n1c23 [Example 20, (S)-3-(3-(5-carbamoyl-7-(3-(2-(dimethylamino)acetamido)propoxy)-2-(1-ethyl-3-methyl-1H-pyrazole-5-carboxamido)-1H-benzo[d]imidazol-1-yl)propyl)-2-(1-ethyl-3-methyl-1H-pyrazole-5-carboxamido)-3,4-dihydro-5-oxa-1,2a-diazaacenaphthylene-7-carboxamide]	2.63		41.58	11.4 µM	
CCn1nc(C)cc1C(=O)Nc1nc2cc(C(N)=O)cc(OCCCNC(=O)CN3CCOCC3)c2n1CCC[C@H]1COc2cc(C(N)=O)cc3nc(NC(=O)c4cc(C)nn4CC)n1c23 [Example 21, (S)-3-(3-(5-carbamoyl-2-(1-ethyl-3-methyl-1H-pyrazole-5-carboxamido)-7-(3-(2-morpholinoacetamido)propoxy)-1H-benzo[d]imidazol-1-yl)propyl)-2-(1-ethyl-3-methyl-1H-pyrazole-5-carboxamido)-3,4-dihydro-5-oxa-1,2a-diazaacenaphthylene-7-carboxamide]	2.38		40.44	1.4 µM	
CCn1nc(C)cc1C(=O)Nc1nc2cc(C(N)=O)cc(OCCCNC(C)=O)c2n1CCC[C@H]1COc2cc(C(N)=O)cc3nc(NC(=O)c4cc(C)nn4CC)n1c23 [Example 22, (S)-3-(3-(7-(3-acetamidopropoxy)-5-carbamoyl-2-(1-ethyl-3-methyl-1H-pyrazole-5-carboxamido)-1H-benzo[d]imidazol-1-yl)propyl)-2-(1-ethyl-3-methyl-1H-pyrazole-5-carboxamido)-k, 3,4-dihydro-5-oxa-1,2a-diazaacenaphthylene-7-carboxamide]	2.40		47.36	3.9 µM	
CCn1nc(C)cc1C(=O)Nc1nc2cc(C(N)=O)cc(OCCCCNC)c2n1CCC[C@H]1COc2cc(C(N)=O)cc3nc(NC(=O)c4cc(C)nn4CC)n1c23 [Example 23, (S)-3-(3-(5-carbamoyl-2-(1-ethyl-3-methyl-1H-pyrazole-5-carboxamido)-7-(4-(methylamino)butoxy)-1H-benzo[d]imidazol-1-yl)propyl)-2-(1-ethyl-3-methyl-1H-pyrazole-5-carboxamido)-3,4-dihydro-5-oxa-1,2a-diazaacenaphthylene-7-carboxamide]	2.82		38.85	1.1 µM	
CCn1nc(C)cc1C(=O)Nc1nc2cc(C(N)=O)cc(OCCCN3CCOCC3)c2n1CCC[C@H]1COc2cc(C(N)=O)cc3nc(NC(=O)c4cc(C)nn4CC)n1c23 [Example 24, (S)-3-(3-(5-carbamoyl-2-(1-ethyl-3-methyl-1H-pyrazole-5-carboxamido)-7-(3-morpholinopropoxy)-1H-benzo[d]imidazol-1-yl)propyl)-2-(1-ethyl-3-methyl-1H-pyrazole-5-carboxamido)-3,4-dihydro-5-oxa-1,2a-diazaacenaphthylene-7-carboxamide]	2.70		56.42	1.1 µM	
CCn1nc(C)cc1C(=O)Nc1nc2cc(C(N)=O)cc(OCCOCCOC)c2n1CCC[C@H]1COc2cc(C(N)=O)cc3nc(NC(=O)c4cc(C)nn4CC)n1c23 [Example 25, (S)-3-(3-(5-carbamoyl-2-(1-ethyl-3-methyl-1H-pyrazole-5-carboxamido)-7-(2-(2-methoxyethoxy)ethoxy)-1H-benzo[d]imidazol-1-yl)propyl)-2-(1-ethyl-3-methyl-1H-pyrazole-5-carboxamido)-3,4-dihydro-5-oxa-1,2a-diazaacenaphthylene-7-carboxamide]	1.95		46.51	0.7 µM	
CCn1nc(C)cc1C(=O)Nc1nc2cc(C(N)=O)cc(OCCCN(C)C(C)=O)c2n1CCC[C@H]1COc2cc(C(N)=O)cc3nc(NC(=O)c4cc(C)nn4CC)n1c23 [Example 27, (S)-3-(3-(5-carbamoyl-2-(1-ethyl-3-methyl-1H-pyrazole-5-carboxamido)-7-(3-(N-methylacetamido)propoxy)-1H-benzo[d]imidazol-1-yl)propyl)-2-(1-ethyl-3-methyl-1H-pyrazole-5-carboxamido)-3,4-dihydro-5-oxa-1,2a-diazaacenaphthylene-7-carboxamide]	2.22		45.86	3.9 µM	
